Measured values published in publication PMC12094722, “Small-molecule inhibitors of 6-phosphofructo-1-kinase simultaneously suppress lactate and superoxide generation in cancer cells” (PLOS One, 2025).
“And” between values parts separate entries of the source, which are not always exact repeats. Equal entries are not always repeated.

Key:
[1] = target: T1, modified sfPFK-M enzyme (47 kDa fragment) (Homo sapiens, UniProt P08237); assay: PFK1 enzymatic assay, modified sfPFK-M; format: biochemical
T1 sequence (P08237 2-390 limits assumed): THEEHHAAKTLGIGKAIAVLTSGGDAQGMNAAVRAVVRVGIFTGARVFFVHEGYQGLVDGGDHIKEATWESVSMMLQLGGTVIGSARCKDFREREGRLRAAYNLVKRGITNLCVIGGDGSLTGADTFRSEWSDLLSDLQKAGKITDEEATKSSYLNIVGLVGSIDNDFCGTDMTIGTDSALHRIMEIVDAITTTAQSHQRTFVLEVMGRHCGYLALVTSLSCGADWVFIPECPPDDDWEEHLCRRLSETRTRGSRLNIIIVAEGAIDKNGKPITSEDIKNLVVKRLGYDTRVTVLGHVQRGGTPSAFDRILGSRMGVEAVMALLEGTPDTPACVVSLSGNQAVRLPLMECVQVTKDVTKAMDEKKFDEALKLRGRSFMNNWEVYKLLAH
Method: (§1) To evaluate the ability of selected compounds to suppress the activities of the recombinant human native and modified PFK-M and PFK-L enzymes, they were constructed in yeast S. cerevisiae as a host organism (S1 Text), partially purified, and their activities assayed (S2 Text).
(§2) S2 Text: PFK1 Enzymatic assays.
(§3) PFK1 activities were determined spectrophotometrically at 340 nm (Lambda 25 UV/VIS spectrophotometer, Perkin Elmer) as reported previously using a coupled reaction system. Unless otherwise stated, in a final volume of 1 mL, the assay mixture contained 50 mM HEPES buffer (pH 7.8), 1 mM DTE, 100 mM KCl, 5 mM MgCl2, 0.2 mM NADH, 0,025 to 2 mM F6P, 10% v/v polyethylene glycol (PEG 6000), 0.9 U/mL aldolase (Sigma-Aldrich, Steinheim, Germany), 15 U/mL triosephosphate isomerase, and 15 U/mL glycerol-3-phosphate dehydrogenase (Sigma-Aldrich, Steinheim, Germany). Before use, the auxiliary enzymes were dialyzed overnight at 4 °C against 50 mM HEPES buffer (pH 7.8) containing 1 mM DTE, with one buffer […]
(§4) induce inhibition. The enzyme concentration used in the kinetic assay was 0.2 µg/mL. […] Total protein concentrations of the samples were determined using a Bio-Rad protein assay (Bio-Rad, Hercules, Ca) with bovine y-globulin […]

[2] = target: T2, native nPFK-M enzyme (85 kDa) (Homo sapiens, UniProt P08237); assay: PFK1 enzymatic assay, native nPFK-M; format: biochemical
T2 construct: made in house; host or cells: Saccharomyces cerevisiae pfk-null HD-114-8A
T2 sequence (P08237 1-780): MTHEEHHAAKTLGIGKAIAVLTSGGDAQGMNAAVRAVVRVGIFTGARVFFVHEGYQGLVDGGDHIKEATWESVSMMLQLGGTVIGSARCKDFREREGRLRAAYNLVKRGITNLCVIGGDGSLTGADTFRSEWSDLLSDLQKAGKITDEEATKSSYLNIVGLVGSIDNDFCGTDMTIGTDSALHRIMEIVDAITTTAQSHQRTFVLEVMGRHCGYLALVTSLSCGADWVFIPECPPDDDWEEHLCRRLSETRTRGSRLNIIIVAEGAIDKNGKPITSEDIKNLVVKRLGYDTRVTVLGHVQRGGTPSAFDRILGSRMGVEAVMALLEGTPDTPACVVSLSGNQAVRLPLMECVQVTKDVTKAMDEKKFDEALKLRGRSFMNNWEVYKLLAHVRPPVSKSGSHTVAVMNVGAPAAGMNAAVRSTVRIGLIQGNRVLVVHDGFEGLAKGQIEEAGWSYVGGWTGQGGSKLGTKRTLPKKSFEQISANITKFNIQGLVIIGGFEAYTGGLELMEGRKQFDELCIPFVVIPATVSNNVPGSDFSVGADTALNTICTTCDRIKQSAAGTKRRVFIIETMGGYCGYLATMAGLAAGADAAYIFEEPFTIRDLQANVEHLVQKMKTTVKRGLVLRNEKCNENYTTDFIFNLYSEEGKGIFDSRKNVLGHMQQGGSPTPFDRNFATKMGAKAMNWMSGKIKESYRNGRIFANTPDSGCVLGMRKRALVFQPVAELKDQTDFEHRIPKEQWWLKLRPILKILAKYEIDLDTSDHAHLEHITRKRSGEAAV
Method: as §1, §2, §3, §4

[3] = tested on: COLO 829 cells; assay: Dose-dependent inhibition of lactate formation; format: cell-based; details: 20, 40, 60, 80 µM, up to 72 hours
[4] = tested on: Caco-2 cells; format: cell-based; details: 72 hours
Method: (§5) As a negative control, 100 µL Triton X-100 was added to wells containing 1mL medium with cells. For the survival evaluation in the dose-dependent tests, the measurements were conducted at the end of incubation at 72 hours of growth in the medium.

[5] = tested on: MDA-MB-231 cells; format: cell-based; details: 72 hours
Method: as §5

[6] = tested on: COLO 829 cells; format: cell-based; details: 72 hours
Method: as §5

[7] = tested on: Jurkat cells; format: cell-based
Method: as §5
The potential cytotoxicity of the inhibitors was also assessed. At the end of the incubation, the average percentage of dead cells was determined in the presence of a vehicle and a 80 µM concentration of each inhibitor.

[8] = tested on: Caco-2 cells; assay: Dose-dependent inhibition of lactate formation; format: cell-based; details: 20, 40, 60, 80 µM, up to 72 hours
Method: (§6) If not specified differently, the tumorigenic cells were plated in the RPMI 1640 GlutaMax medium (Thermo Fisher Scientific, Waltham, MA, USA) supplemented with 10% FBS at the concentration of 5 × 10^5 cells per mL. The cells were incubated at 37 °C and 5% CO2. Different concentrations of specific inhibitors were added to the medium at the beginning of inoculation. An adequate amount of DMSO used in the solution with the specified concentrations of compounds was added to the vehicle.
(§7) For measuring lactate concentrations in the medium, 20 µL samples were taken at specified time intervals, centrifuged at 1200 rpm for 5 minutes at 4 °C and 15 µL supernatants were preserved at 4 °C until analyzed.
(§8) Lactate levels were assessed enzymatically using an L-Lactic acid assay kit (K-LATE, Megazyme, Bray, Ireland) and measured according to the manufacturer’s instructions.
(§9) The lactate formation, growth yield, and survival under normal and inhibitory conditions of four tumorigenic cell lines were investigated. […] Cells were grown in the presence of vehicles or inhibitors at different concentrations (20, 40, 60, and 80 µM), and lactate levels in the supernatant were determined sequentially.

[9] = tested on: Jurkat cells; assay: Dose-dependent inhibition of lactate formation; format: cell-based; details: for Stability of the compounds during incubation, indicated by increasing lactate formation in later phases: Jurkat cell culture medium, after 24 hours up to 72 hours; for Lactate formation in the first 24 hours: Jurkat cells, 20, 40, 60, 80 µM, regardless of concentration, later dose-dependent lactate production up to 72 hours
Method: as §6, §7, §8, §9

[10] = tested on: MDA-MB-231 cells; assay: Dose-dependent inhibition of lactate formation; format: cell-based; details: 20, 40, 60, 80 µM, up to 72 hours
Method: as §6, §7, §8, §9

[11] = tested on: Jurkat cells; assay: Cytostatic assay (XTT cell proliferation); format: cell-based; details: 20-80 µM
Method: (§10) Untreated cells and cells treated with different concentrations of inhibitors were incubated for 72 hours before alive cellular biomass was determined according to the manufacturer’s instructions.
To investigate possible cytostatic effects of the inhibitors, the total cell number of Jurkat cells treated with vehicles of different concentrations of inhibitors was determined immediately after incubation.

[12] = tested on: all tumorigenic cell lines tested; assay: ROS/SOX reduction by sequential re-insertion, statement for all lines; format: cell-based; details: sequentially re-added every 24 hours
Method: After 78 hours cells were washed by centrifugation, and an aliquot of 1 × 10^5 cells was placed into 1 mL of phenol red-free IMDM medium (Thermo Fisher Scientific, Waltham, MA, USA) supplemented with 10% of FBS. The cells were incubated for an additional 3 hours before measurement.
For detecting ROS and SOX levels in the cells, 100 µL of medium was washed with PBS by standard centrifugation protocol and then placed into a well on the 96-well black wall/clear bottom plate. To each well 100 µL ROS detection reagent (Green) and SOX detection reagent (Orange) were added as specified in the Cellular ROS/SOX Detection Assay Kit (ab139476 Abcam, Cambridge, UK). For measuring superoxide Cellular Superoxide Detection Assay Kit (ab139477 Abcam, Cambridge, UK) was used that contains “Orange” but not the “Green” reagent.

[13] = tested on: Caco-2 cells; assay: Cytostatic assay (XTT cell proliferation); format: cell-based; details: up to 80 µM, 72 hours
Method: as §10

[14] = tested on: MDA-MB-231 cells; assay: Cytostatic assay (XTT cell proliferation); format: cell-based; details: up to 80 µM, 72 hours
Method: as §10

[15] = tested on: COLO 829 cells; assay: Cytostatic assay (XTT cell proliferation); format: cell-based; details: up to 80 µM, 72 hours
Method: as §10

[16] = target: T3, modified sfPFK-L enzyme (70 kDa fragment) (Homo sapiens, UniProt P17858); assay: PFK1 enzymatic assay, modified sfPFK-L; format: biochemical
T3 construct: 45.920 Da [2] and short PFK-L of 69.942 Da fragments [3], respectively; made in house; host or cells: Saccharomyces cerevisiae pfk-null HD-114-8A
T3 sequence (P17858 2-648): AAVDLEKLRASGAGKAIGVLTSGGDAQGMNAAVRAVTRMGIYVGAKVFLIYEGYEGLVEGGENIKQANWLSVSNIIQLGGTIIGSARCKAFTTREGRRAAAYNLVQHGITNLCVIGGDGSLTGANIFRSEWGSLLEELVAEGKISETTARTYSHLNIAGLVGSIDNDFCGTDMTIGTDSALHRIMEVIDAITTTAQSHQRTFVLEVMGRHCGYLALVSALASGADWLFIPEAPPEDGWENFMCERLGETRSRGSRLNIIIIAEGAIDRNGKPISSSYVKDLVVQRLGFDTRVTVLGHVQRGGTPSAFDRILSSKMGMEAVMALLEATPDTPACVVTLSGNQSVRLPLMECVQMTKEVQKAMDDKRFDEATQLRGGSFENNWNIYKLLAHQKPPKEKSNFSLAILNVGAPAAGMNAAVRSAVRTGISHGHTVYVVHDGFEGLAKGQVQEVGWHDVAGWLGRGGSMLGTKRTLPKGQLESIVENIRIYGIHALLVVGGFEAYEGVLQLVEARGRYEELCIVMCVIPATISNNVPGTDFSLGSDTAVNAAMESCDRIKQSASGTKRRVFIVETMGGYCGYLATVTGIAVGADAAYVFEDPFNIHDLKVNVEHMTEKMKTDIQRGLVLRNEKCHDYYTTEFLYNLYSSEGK
Method: as §1, §2, §3, §4

[17] = 10 µM sequentially added every 24 hours

SMILES: O=C(CSc1nnc(-c2ccc3c(c2)OCO3)o1)Nc1ccon1 [cmpd No. 3, 2-[(5-benzo[1,3]dioxol-5-yl-1,3,4-oxadiazol-2-yl)sulfanyl]-N-isoxazol-3-yl-acetamide]
- IC50 [1]: 15 µM and ~15 µM
- IC50 [2]: 18 µM

SMILES: COc1ccc(-c2cccc(-c3ccn(Cc4noc(C)n4)n3)c2)nn1 [cmpd No. 9, 3-methoxy-6-(3-{1-[(5-methyl-1,2,4-oxadiazol-3-yl)methyl]-1H-pyrazol-3-yl}phenyl)pyridazine]
- Lactate formation, dose-dependent test [3]: Apparent dose-dependent effects of suppressed lactate formation
- Average percentage of dead cells, sequentially treated [4, 17]: 4.03 ± 0.32%
- Average percentage of dead cells ([4]; dose-dependent test, different concentrations of inhibitors): 3.33 ± 0.14%
- Average percentage of dead cells, sequentially treated [5, 17]: 2.35 ± 0.09%
- Average percentage of dead cells ([5]; dose-dependent test): 6.59 ± 0.29%
- Average percentage of dead cells, sequentially treated [6, 17]: 2.84 ± 0.19%
- Average percentage of dead cells ([6]; dose-dependent test): 3.65 ± 0.78%
- Average percentage of dead cells ([7]; 80 µM, end of incubation 72 hours): 3.74 ± 0.3%
- Average percentage of dead cells, sequentially treated ([7]; 10 µ L sequentially added every 24 hours, 72 hours): 3.24 ± 0.25%
- Lactate accumulation, dose-dependent test [8]: dose-dependent reduction in lactate accumulation
- Stability of the compounds during incubation, indicated by increasing lactate formation in later phases [9]: instability
- Lactate formation in the first 24 hours [9]: no or only small amounts of lactate
- Lactate suppression, dose-dependent test [10]: Dose-dependent effects
- Cytostatic effect (cells counted after 72 hours of incubation) [11]: no significant cytostatic
- Reduction of ROS formation ([12]; 5 µM): approximately 50%
- Reduction of ROS formation ([12]; 10 and 20 µM): approximately 65%
- Cytostatic effect (total number of cells at the end of incubation) [13]: no adverse effects on cell growth
- Cytostatic effect (total cell number) [14]: No significant differences in total cell number
- Cytostatic effect (total cell number compared to the control) [15]: No significant differences in the total cell number

SMILES: Nc1nnc(-c2cc(-c3ccc(O)cc3)on2)o1 [cmpd No. 30, 4-[3-(5-amino-1,3,4-oxadiazol-2-yl)isoxazol-5-yl]phenol]
- IC50 [16]: 8 µM
- Lactate accumulation, dose-dependent test [8]: dose-dependent reduction in lactate accumulation
- Stability of the compounds during incubation, indicated by increasing lactate formation in later phases [9]: instability
- Lactate formation in the first 24 hours [9]: no or only small amounts of lactate
- Lactate suppression, dose-dependent test [10]: Dose-dependent effects
